# Data: patent US8481016B2, “Method for inhibition of potential-dependent cation channel” (Kao Corporation, priority 2010, dated 2013)
# Test system: potential-dependent cation channel of isolated olfactory cells
# Assay: Test for measuring potential-dependent cation channel activity (whole-cell recording, inward current on depolarization)
# Assay type: cell-based, Japanese fire belly newt (Cynops pyrrhogaster)
# Conditions: Reference Example; concentration not given
# Protocol: 1. Isolation of Olfactory Cells
# To briefly explain the method of isolation, each newt which had been hibernated in ice-water was double-pithed, and the cranium was cut open to remove olfactory mucosa. The removed olfactory mucosa was incubated in a 0.1% collagenase solution at 37° C. for 5 minutes, and collagenase was washed off. Subsequently, the mucosal tissue was crushed by means of a glass pipette to thereby isolate cells. As the normal Ringer's solution, a solution of 110 mM NaCl, 3.7 mM KCl, 3 mM CaCl2, 1 mM MgCl2, 15 mM glucose, 1 mM sodium pyruvate, 10 mM HEPES, and 0.001% (w/v) Phenol Red, at pH 7.4 (adjusted with NaOH), was used.
# 2. Measurement of Electrical Activity [A. Setting] […] A borosilicate glass capillary (diameter: 1.2 mm) was used as the electrode, and the electrode was produced using a puller for electrode fabrication (P-97, Sutter Instrument Co.) (electrode resistance: approximately 6.0 MΩ). An electrode filling solution and a silver-silver chloride wire were inserted into the electrode, the silver-silver chloride wire was connected to a patch clamp amplifier (EPC10, HEKA), and thus fixation of the membrane potential and depolarization simulation were performed. […] The recording of the membrane current was performed using a computer (IBM-compatible) connected to the patch clamp amplifier (sampling frequency: 1 kHz), and Patch Master software (HEKA) was used for the measurement and analysis. The addition (spraying) of a test substance was carried out using a pressure controller.
# [B. Procedure] In order to investigate the effect of each of the test substances described above (see Table 1) on the potential-dependent cation channel activity, the membrane potential of the isolated olfactory cells was fixed at −90 mV, and the membrane potential was depolarized to −20 mV for 20 milliseconds at an interval of 200 milliseconds. The peak intensity of the inward current produced immediately after depolarization (FIG. 1. |a|=[Inward current value produced immediately after depolarization]−[baseline value]) was measured. While depolarization stimulation was continuously repeated, the test substance was adjusted to the various concentrations indicated in Table 1 using normal Ringer's solution, and the mixture was added to the olfactory cells by spraying the mixture (for 650 milliseconds, pressure: 100 kPa) through a glass pipette (tip diameter: 1 μm) that was placed such that the tip of the pipette was located in the vicinity (10 μm) of the olfactory cells . The change in the inward current (FIG. 1, |b|=[Inward current value when the peak intensity was most suppressed]−[baseline value]) resulting from the spraying was investigated. This spraying was carried out continuous for 5 times. Furthermore, the average value A of the peak intensities (a) of the inward current produced by the depolarization immediately before the addition of an extract, and the average value B of the peak intensities (b) of the inward current produced by the depolarization immediately after the addition of an extract were calculated.
# The CNG channel current can be easily distinguished from the potential-dependent channel current, in terms of the intensity, peak shape, duration and the like.
# The “inward current suppression ratio (%)” was calculated from the “B: average value of the inward current value (b) when the peak intensity was most suppressed” and the “A: average value of the inward current value (a) produced immediately after the depolarization immediately before the addition of an extract,” as shown in the following formula.
row,Structure (SMILES),Channel suppression ratio (inward current suppression ratio) [%]
1,"CC12CCC(CC1)C(C)(C)O2 [1,8-Cineol]",46.5
2,CCC(O)COC1CCCCC1C(C)(C)C (centres unmarked) [AMBER CORE],27.1
3,COc1ccc(C=O)cc1 [ANIS ALDEHYDE],89.3
4,O=C(OCc1ccccc1)c1ccccc1 [BENTHYL BENZOATE],10.7
5,O=Cc1ccccc1 [BENZALDEHYDE],95.4
6,CC(C)=CCCC(C)=CC=O [CIT RAL],110.6
7,C=CC(C)CCCC(C)(C)O (centres unmarked) [DIHYDRO MYRCENOL],109.0
8,CCOC(=O)C12CCCC1C1CCC2C1 (centres unmarked) [FRUIT ATE],11.6
9,CC(C)=CCC/C(C)=C/CO [GERANIOL],90.1
10,CC(C=O)Cc1ccc(C(C)(C)C)cc1 (centres unmarked) [LILIAL],57.9
11,C=CC(C)(CCC=C(C)C)OC(C)=O (centres unmarked) [LINALYL ACETATE],43.3
12,CC(C)(O)CCCC1=CCC(C=O)CC1 (centres unmarked) [LYRAL],35.7
13,C=CC(C)(O)CCC=C(C)C (centres unmarked) [Linalool],106.5
14,OCCc1ccccc1 [PHENYL ETHYL ALCOHOL],82.6
15,CCOC(=O)C(C)C1CCCCC1 (centres unmarked) [POIRENATE],48.7
16,CC1=CC(C)C(C=O)CC1 (centres unmarked) [TRIPLAL],79.9
17,CC=CC(=O)C1=C(C)CCCC1(C)C [b-DAMASCONE],56.1
18,CC/C=C\CCO [cis-3-HEXENOL],78.7
19,CC(=O)OCCC(C)C [iso-AMYL ACETATE],92.0
20,CC(=O)OC1CCCCC1C(C)(C)C (centres unmarked) [o-t-B.C.H.A],23.8

# Same assay, conditions: evaluation concentration 0.01%; depolarization -90 mV to -20 mV; newt olfactory cells
row,Structure (SMILES),Inhibition ratio (%) (inward current suppression ratio)
1,"CC12CC3CC(C1)CC(C)(C3)C2 [Comparative Example 2, 1,3-Dimethyladamantane]",0
2,"CC12CC3CC(C)(C1)CC(CO)(C3)C2 [Example 5, 3,5-Dimethyladamantane-1-methanol]",59.9
3,"NCC12CC3CC(CC(C3)C1)C2 [Example 6, 1-Adamantane methylamine]",54.5
4,"CC(=O)C12CC3CC(CC(C3)C1)C2 [Example 7, 1-Adamantylmethyl ketone]",32
5,"CCOC(=O)CC(=O)C12CC3CC(CC(C3)C1)C2 [Example 9, Ethyl-3-(1-adamantyl)-3-oxopropionate]",45.5
6,"CC(=O)NC12CC3CC(CC(C3)C1)C2 [Example 10, 1-Acetamidoadamantane]",40.6
7,CC(N)C12CC3CC(CC(C3)C1)C2.Cl (centres unmarked) [Example 11],78.9

# Same assay, conditions: evaluation concentration 0.04%; depolarization -90 mV to -20 mV; newt olfactory cells
row,Structure (SMILES),Inhibition ratio (%) (inward current suppression ratio)
1,"C1C2CC3CC1CC(C2)C3 [Comparative Example 1, Adamantane]",10.9
2,"OC12CC3CC(CC(C3)C1)C2 [Example 1, 1-Adamantanol]",72.4
3,"OCCC12CC3CC(CC(C3)C1)C2 [Example 2, 1-Adamantane ethanol]",63.4
4,"O=C(O)CC12CC3CC(CC(C3)C1)C2 [Example 8, 1-Adamantane acetic acid]",82.5

# Test system: not listed separately
# Assay: Olfaction masking test by sensory evaluation, hexanoic acid as malodorous substance
# Assay type: in vivo, human beings
# Conditions: 10 panelists, hexanoic acid 10%, 20 μL, test solution 25%, same cotton ball
# Protocol: An olfaction masking test based on sensory evaluation was carried out with 10 panelists. […] The cotton ball was placed in a 50-mL container, and the malodorous substance was volatilized overnight at room temperature.
# The evaluation was carried out such that each panelist smelled the odor in the container, and determined the strength of masking of hexanoic acid by the addition of the adamantane derivatives. The intensity of odor of simple hexanoic acid was set to 5.0, which is an intermediate point among the 21 grades of evaluation criteria (0: no odor, 10: strong odor).
row,Structure (SMILES),Hexanoic acid odor intensity suppression ratio (%)
1,"O=C(O)CC12CC3CC(CC(C3)C1)C2 [Example 8, 1-Adamantane acetic acid]",32

# Same assay, conditions: 10 panelists, hexanoic acid 10%, 20 μL, test solution 50%, same cotton ball
row,Structure (SMILES),Hexanoic acid odor intensity suppression ratio (%)
1,"CC12CC3CC(C)(C1)CC(CO)(C3)C2 [Example 5, 3,5-Dimethyladamantane-1-methanol]",28
2,"NCC12CC3CC(CC(C3)C1)C2 [Example 6, 1-Adamantane methylamine]",78

# Test system: not listed separately
# Assay: Sensory evaluation olfaction masking test, isovaleric acid as malodorous substance
# Assay type: in vivo
# Conditions: 20 panelists; isovaleric acid 1%, 2 μL; test solution 0.1%, 4 μL; six-grade score 0 (masking not achieved) to 5 (perfect masking)
# Protocol: [Sensory evaluation test]
# An olfaction masking test based on sensory evaluation was carried out with 20 panelists.
# 2 μL of the malodorous substance and 4 μL of a test solution of each of the test compounds indicated in Table 3 at a concentration of 0.1% were impregnated into separate cotton balls (diameter: 1 cm), and the substances were volatilized for 12 hours at room temperature in each of separate 50-mL injection syringes. The isovaleric acid and test compound volatilized in the syringe were injected into a PP container (capacity: 500 mL) with a cap and were mixed in the container.
# The evaluation was carried out such that each panelist slightly opened the cap of the PP container and smelled the odor in the container, and the panelist determined the masking strength for the odor of isovaleric acid.
# The evaluation of the masking strength was carried out based on the following six-grade masking scores, based on a comparison with the intensity of odor in a PP container to which only volatilized isovaleric acid had been injected.
# 0: Masking is not achieved.
# 1: A very slight masking effect is recognized.
# 2: A slight masking effect is recognized.
# 4: Masking is almost achieved.
# 5: Perfect masking is achieved.
row,Structure (SMILES),Masking score
1,CC=CC(=O)C1=C(C)CCCC1(C)C [b-DAMASCONE],2.4
